In this assay the test system is RSV (Long). Briefly: RSV cytopathic effect (CPE)-based viral replication assay. In kind it is cell-based, respiratory syncytial virus (RSV). The conditions noted are these: human respiratory syncytial virus, HEp-2, 72 h, read-out: EC50 (nm). The essentials: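 HEp-2 cells, 2,500 per well in DMEM with 2% heat-inactivated FBS, treated with 10-point compound dilutions and infected with RSV Long at MOI 0.015. After 3 days at 37 °C, 5% CO2, viability read by CellTiter-Glo luminescence; EC50 derived from CPE data.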
In general terms: Cytopathic effects are the visible damage that an infection or toxin causes in cultured cells.

The mark [1] stands for this setting: HEp-2 cells infected with RSV Long at MOI 0.015, 3 days at 37° C., cell viability by CellTiter-Glo luminescence.

Molecules are shown by their SMILES. Where two headings read alike, the source gives them in different places.

By EC50 is commonly meant the concentration giving half of the maximal effect.

`NCCCC(=O)N1CCC2(CC1)C(=O)N(Cc1ncc3ccccc3c1-c1cccnc1)c1cnccc12` [Example 142, 1-(4-aminobutanoyl)-1′-((4-(pyridin-3-yl)isoquinolin-3-yl)methyl)spiro[piperidine-4,3′-pyrrolo[2,3-c]pyridin]-2′(1′H)-one]: under setting [1], the EC50 stood at 5.8 nM. The same measure, in the same setting: under `NCC(=O)N1CCC2(CC1)C(=O)N(Cc1ncc3ccccc3c1-c1cccnc1)c1cnccc12` [Example 143, 1-(2-aminoacetyl)-1′-((4-(pyridin-3-yl)isoquinolin-3-yl)methyl)spiro[piperidine-4,3′-pyrrolo[2,3-c]pyridin]-2′(1′H)-one] stands 10 nM.

For the compound `COC(=O)N1CCC2(CC1)C(=O)N(Cc1ncc3ccccc3c1-c1cccnc1)c1cnccc12` [Example 144, Methyl 2′-oxo-1′-((4-(pyridin-3-yl)isoquinolin-3-yl)methyl)-1′,2′-dihydrospiro[piperidine-4,3′-pyrrolo[2,3-c]pyridine]-1-carboxylate], the EC50 came to 1.1 nM.

As to `NC1(CC(=O)N2CCC3(CC2)C(=O)N(Cc2ncc4ccccc4c2-c2cccnc2)c2cnccc23)CC1` [Example 145, 1-(2-(1-Aminocyclopropyl)acetyl)-1′-((4-(pyridin-3-yl)isoquinolin-3-yl)methyl)spiro[piperidine-4,3′-pyrrolo[2,3-c]pyridin]-2′(1′H)-one], the 50% effective concentration (EC50) under setting [1] came out at 8.1 nM.

On to `CC(=O)N1CCC2(CC1)C(=O)N(Cc1ncc3ccccc3c1-c1cccnc1)c1cnccc12` [Example 146b, 1-Acetyl-1′-((4-(pyridin-3-yl)isoquinolin-3-yl)methyl)spiro[piperidine-4,3′-pyrrolo[2,3-c]pyridin]-2′(1′H)-one], for which the EC50 under setting [1] was determined as 2.8 nM.

For `NC1(C(=O)N2CC3(C2)C(=O)N(Cc2ncc4ccccc4c2-c2cccnc2)c2ccccc23)CC1` [Example 147, 1-(1-aminocyclopropanecarbonyl)-1′-((4-(pyridin-3-yl)isoquinolin-3-yl)methyl)spiro[azetidine-3,3′-indolin]-2′-one], under setting [1], the EC50 came out at 18 nM. As to `O=C(N1CCOCC1)N1CC2(C1)C(=O)N(Cc1ncc3ccccc3c1-c1cccnc1)c1ccccc12` [Example 148b, 1-(morpholine-4-carbonyl)-1′-((4-(pyridin-3-yl)isoquinolin-3-yl)methyl)spiro[azetidine-3,3′-indolin]-2′-one], under setting [1], the EC50 turned out to be 7.2 nM. The same measure, in the same setting: under `O=C(C1CCNCC1)N1CC2(C1)C(=O)N(Cc1ncc3ccccc3c1-c1cccnc1)c1ccccc12` [Example 149b, 1-(Piperidine-4-carbonyl)-1′-((4-(pyridin-3-yl)isoquinolin-3-yl)methyl)spiro[azetidine-3,3′-indolin]-2′-one] stands 6 nM. For the compound `NCCC(=O)N1CC2(C1)C(=O)N(Cc1ncc3ccccc3c1-c1cccnc1)c1ccccc12` [Example 150, 1-(3-Aminopropanoyl)-1′-((4-(pyridin-3-yl)isoquinolin-3-yl)methyl)spiro[azetidine-3,3′-indolin]-2′-one], the half-maximal effective concentration (EC50) under setting [1] turned out to be 6.6 nM. The same measure, in the same setting: under `NCCCC(=O)N1CC2(C1)C(=O)N(Cc1ncc3ccccc3c1-c1cccnc1)c1ccccc12` [Example 151, 1-(4-Aminobutanoyl)-1′-((4-(pyridin-3-yl)isoquinolin-3-yl)methyl)spiro[azetidine-3,3′-indolin]-2′-one] stands 2.7 nM.

With `NCC(=O)N1CC2(C1)C(=O)N(Cc1ncc3ccccc3c1-c1cccnc1)c1ccccc12` [Example 152, 1-(2-Aminoacetyl)-1′-((4-(pyridin-3-yl)isoquinolin-3-yl)methyl)spiro[azetidine-3,3′-indolin]-2′-one], the half-maximal effective concentration (EC50) under setting [1] is 12 nM. For the compound `CC(=O)N1CC2(C1)C(=O)N(Cc1ncc3ccccc3c1-c1cccnc1)c1ccccc12` [Example 153, 1-acetyl-1′-((4-(pyridin-3-yl)isoquinolin-3-yl)methyl)spiro[azetidine-3,3′-indolin]-2′-one], the EC50 was found to be 5.5 nM. Regarding `CS(=O)(=O)N1CC2(C1)C(=O)N(Cc1ncc3ccccc3c1-c1cccnc1)c1ccccc12` [Example 154, 1-(Methylsulfonyl)-1′-((4-(pyridin-3-yl)isoquinolin-3-yl)methyl)spiro[azetidine-3,3′-indolin]-2′-one], the concentration for a half-maximal effect (EC50) under setting [1] was 1.4 nM.

For `NC1(NC(=O)N2CC3(C2)C(=O)N(Cc2ncc4ccccc4c2-c2cccnc2)c2ccccc23)CC1` [Example 155, N-(1-aminocyclopropyl)-2′-oxo-1′-((4-(pyridin-3-yl)isoquinolin-3-yl)methyl)spiro[azetidine-3,3′-indoline]-1-carboxamide], under setting [1], the EC50 is 2 nM. The same measure, in the same setting: then `NC1(CC(=O)N2CC3(C2)C(=O)N(Cc2ncc4ccccc4c2-c2cccnc2)c2ccccc23)CC1` [Example 156, 1-(2-(1-aminocyclopropyl)acetyl)-1′-((4-(pyridin-3-yl)isoquinolin-3-yl)methyl)spiro[azetidine-3,3′-indolin]-2′-one], with 13 nM; and `COC(=O)N1CC2(C1)C(=O)N(Cc1ncc3ccccc3c1-c1ccc(C(N)C(F)(F)F)nc1)c1ccccc12` (stereo not shown) [Example 157b, methyl 1′-((4-(6-(1-amino-2,2,2-trifluoroethyl)pyridin-3-yl)isoquinolin-3-yl)methyl)-2′-oxospiro[azetidine-3,3′-indoline]-1-carboxylate], with 4 nM; and `CS(=O)(=O)N1CCC2(CC1)C(=O)N(Cc1ncc3ccccc3c1-c1ccc(C(N)C(F)(F)F)nc1)c1cnccc12` (stereo not shown) [Example 158c, 1′-((4-(6-(1-amino-2,2,2-trifluoroethyl)pyridin-3-yl)isoquinolin-3-yl)methyl)-1-(methylsulfonyl)spiro[piperidine-4,3′-pyrrolo[2,3-c]pyridin]-2′(1′H)-one], with 3 nM.

For `CS(=O)(=O)N1CCC2(CC1)C(=O)N(Cc1ncc3ccccc3c1-c1cnco1)c1cnccc12` [Example 159b, 1-(methylsulfonyl)-1′-((4-(oxazol-5-yl)isoquinolin-3-yl)methyl)spiro[piperidine-4,3′-pyrrolo[2,3-c]pyridin]-2′(1′H)-one], the EC50 under setting [1] stood at 7.8 nM. On the same count and under the same terms, then `CS(=O)(=O)N1CCC2(CC1)C(=O)N(Cc1ncc3cc(Cl)ccc3c1-c1cccnc1)c1cnccc12` [Example 160c, 1′-((7-chloro-4-(pyridin-3-yl)isoquinolin-3-yl)methyl)-1-(methylsulfonyl)spiro[piperidine-4,3′-pyrrolo[2,3-c]pyridin]-2′(1′H)-one], with 1.3 nM; and `COC(=O)N1CC2(C1)C(=O)N(Cc1ncc3cc(Cl)ccc3c1-c1cccnc1)c1cnccc12` [Example 161c, methyl 1′-((7-chloro-4-(pyridin-3-yl)isoquinolin-3-yl)methyl)-2′-oxo-1′,2′-dihydrospiro[azetidine-3,3′-pyrrolo[2,3-c]pyridine]-1-carboxylate], with 2.9 nM; and `CS(=O)(=O)N1CC2(C1)C(=O)N(Cc1ncc3cc(Cl)ccc3c1-c1cccnc1)c1cnccc12` [Example 162, 1′-((7-chloro-4-(pyridin-3-yl)isoquinolin-3-yl)methyl)-1-(methylsulfonyl)spiro[azetidine-3,3′-pyrrolo[2,3-c]pyridin]-2′(1′H)-one], with 4.8 nM. On the same count and under the same terms, under `COC(=O)N1CCC2(CC1)C(=O)N(Cc1ncc3cc(Cl)ccc3c1-c1cccnc1)c1cnccc12` [Example 164, Methyl 1′-((7-chloro-4-(pyridin-3-yl)isoquinolin-3-yl)methyl)-2′-oxo-1′,2′-dihydrospiro[piperidine-4,3′-pyrrolo[2,3-c]pyridine]-1-carboxylate] stands 1.6 nM. On the same count and under the same terms, then `COC(=O)N1CCC2(CC1)C(=O)N(Cc1ncc3cc(Cl)ccc3c1-c1ccncc1)c1cnccc12` [Example 165b, Methyl 1′-((7-chloro-4-(pyridin-4-yl)isoquinolin-3-yl)methyl)-2′-oxo-1′,2′-dihydrospiro[piperidine-4,3′-pyrrolo[2,3-c]pyridine]-1-carboxylate], with 1.8 nM; and `CS(=O)(=O)N(c1ccc(-c2c(CN3C(=O)C4(CCN(C(=O)C5(C(F)(F)F)CC5)CC4)c4ccncc43)ncc3ccccc23)cn1)S(C)(=O)=O` [Example 166d, N-(methylsulfonyl)-N-(5-(3-((2′-oxo-1-(1-(trifluoromethyl)cyclopropanecarbonyl)spiro[piperidine-4,3′-pyrrolo[2,3-c]pyridin]-1′(2′H)-yl)methyl)isoquinolin-4-yl)pyridin-2-yl)methanesulfonamide], with 2.5 nM; and `COC(=O)N1CC2(C1)C(=O)N(Cc1ncc3ccccc3c1-c1ccc(NS(C)(=O)=O)nc1)c1cnccc12` [Example 167d, methyl 1′-((4-(6-(methylsulfonamido)pyridin-3-yl)isoquinolin-3-yl)methyl)-2′-oxo-1′,2′-dihydrospiro[azetidine-3,3′-pyrrolo[2,3-c]pyridine]-1-carboxylate], with 4.8 nM.

In the case of `CS(=O)(=O)N1CCC2(CC1)C(=O)N(Cc1ncc3cc(Cl)ccc3c1-c1cncs1)c1ccccc12` [Example 169b, 1-((7-chloro-4-(thiazol-5-yl)isoquinolin-3-yl)methyl)-1′-(methylsulfonyl)spiro[indoline-3,4′-piperidin]-2-one], the EC50 under setting [1] was determined as 1.3 nM.

With `CC1(n2c(=O)n(Cc3ncc4ccccc4c3-c3ccc(C4(N)CC4)nc3)c3cnccc32)CC1` [Example 2001], the EC50 under setting [1] amounted to 9.5 nM. The same measure, in the same setting: under `COC(=O)C1CC2(C1)C(=O)N(Cc1ncc3ccccc3c1-c1ccc(C3(N)CC3)nc1)c1cnccc12` (stereo not shown) [Example 2002] stands 5.4 nM; under `COC(=O)N1CC2(C1)C(=O)N(Cc1nc(C(F)F)c3ccccc3c1-c1cccnc1)c1ccccc12` [Example 2003], 1000 nM. Same read-out and setting: under `NC1(CNC(=O)N2CC3(C2)C(=O)N(Cc2ncc4ccccc4c2-c2cncc(F)c2)c2ccccc23)CC1` [Example 2004] stands 3 nM; under `CNC1(C(=O)N2CC3(C2)C(=O)N(Cc2ncc4ccccc4c2-c2ccc(NS(C)(=O)=O)cn2)c2ccccc23)CC1` [Example 2005], 230 nM.
